Laboratory results taken from patent publication US5747336A, “Cloned human genes for muscarinic acetylcholine receptors and cells lines expressing same” (The United States of America as represented by the …, priority 1994, dated 1998).

How the values were obtained:
[1] = target: T1, human m5 receptor (Hm5) (Homo sapiens, UniProt P08912); experiment: 3H-NMS binding assay (direct and inhibition), membranes of transfected CHO cells, Hm5
T1 construct: expressed in transfected cells
T1 sequence (P08912 1-532): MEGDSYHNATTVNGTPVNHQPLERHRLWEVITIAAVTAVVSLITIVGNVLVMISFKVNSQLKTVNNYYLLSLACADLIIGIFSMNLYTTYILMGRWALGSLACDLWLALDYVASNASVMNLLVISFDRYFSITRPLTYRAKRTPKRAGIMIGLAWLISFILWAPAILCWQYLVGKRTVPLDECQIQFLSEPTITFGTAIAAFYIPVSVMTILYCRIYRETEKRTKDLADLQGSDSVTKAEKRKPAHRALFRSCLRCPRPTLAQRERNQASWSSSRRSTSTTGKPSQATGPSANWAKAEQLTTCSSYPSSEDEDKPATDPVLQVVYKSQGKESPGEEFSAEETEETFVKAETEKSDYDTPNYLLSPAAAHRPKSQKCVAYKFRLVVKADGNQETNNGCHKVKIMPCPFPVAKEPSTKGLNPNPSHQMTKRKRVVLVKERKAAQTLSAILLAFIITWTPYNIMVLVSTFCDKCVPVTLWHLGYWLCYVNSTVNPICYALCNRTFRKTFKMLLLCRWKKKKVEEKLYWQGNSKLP
Description: Cells were seeded into six well plates at a density of 10^5 cells/well in growth medium consisting of Minimum Eagle's, Medium supplemented with 10% fetal calf serum (Gibco) and 1000 U each of penicillin G and streptomycin and 4 mM glutamine (Whitaker M.A Bioproducts). Except for the overnight (10-16 hours) transfection (see below) cells were incubated in a humidified incubator at 37° C. and 5% CO2. […] Cells were transferred to a humidified incubator at 35° C. and 3% CO2 and incubated overnight (10-16 hours). […] At the end of selection, transfected cells were harvested and plated at limiting dilution into 96-well plates.
Transfected cells were grown to confluence, washed and scraped into cold binding buffer and homogenized for 30 seconds in a Tekmar Tissumizer (setting 50). Membranes were pelleted at 14,000 g, rehomogenized and the membrane protein determined using a Biorad Protein assay dye reagent. Membrane concentration was adjusted to 1mg protein/ml and stored frozen at -80° C. prior to use.
All membranes, drugs and radioligands were made up in binding buffer which consisted of 25 mM sodium phosphate (pH 7.4) containing 5 mM magnesium chloride. Assays were conducted in 1 ml total volume. Final membrane protein concentrations were 30 ug/ml (m1), 70 ug/ml (m2), 4 μg/ml (m3), 7 μg/ml (m4), and 3 μg/ml (m5). […] Displaceable binding was assessed in the presence of 1 uM atropine sulphate. Binding was terminated by filtration through a Brandel cell harvester onto Whatman GF/C filters.
Data from two to four experiments were independently fit by nonlinear regression to a single mass-action binding site. […] Note Rm1 is the rat m1 receptor, not the human m1 receptor.

[2] = target: T2, human m2 receptor (Hm2) (Homo sapiens, UniProt P08172)
T2 sequence (P08172 1-466): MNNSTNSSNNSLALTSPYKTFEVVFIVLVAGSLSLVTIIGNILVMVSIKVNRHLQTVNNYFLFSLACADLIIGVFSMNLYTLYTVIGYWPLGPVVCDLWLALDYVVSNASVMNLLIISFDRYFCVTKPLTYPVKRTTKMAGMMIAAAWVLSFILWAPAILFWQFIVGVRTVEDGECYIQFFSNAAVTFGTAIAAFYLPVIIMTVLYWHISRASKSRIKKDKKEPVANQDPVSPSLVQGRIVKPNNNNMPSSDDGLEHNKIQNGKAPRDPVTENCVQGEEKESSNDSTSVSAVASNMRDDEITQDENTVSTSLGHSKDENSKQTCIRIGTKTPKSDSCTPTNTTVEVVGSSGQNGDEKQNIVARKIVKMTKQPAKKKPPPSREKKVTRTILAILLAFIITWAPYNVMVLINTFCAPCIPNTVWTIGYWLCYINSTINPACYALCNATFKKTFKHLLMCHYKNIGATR
Description: (§1) Data from two to four experiments were independently fit by nonlinear regression to a single mass-action binding site. The average values of the parameters derived from the fits and their standard errors are presented. […] Note Rm1 is the rat m1 receptor, not the human m1 receptor.

[3] = target: T3, human m4 receptor (Hm4) (Homo sapiens, UniProt P08173); experiment: biochemical
T3 sequence (P08173 1-479): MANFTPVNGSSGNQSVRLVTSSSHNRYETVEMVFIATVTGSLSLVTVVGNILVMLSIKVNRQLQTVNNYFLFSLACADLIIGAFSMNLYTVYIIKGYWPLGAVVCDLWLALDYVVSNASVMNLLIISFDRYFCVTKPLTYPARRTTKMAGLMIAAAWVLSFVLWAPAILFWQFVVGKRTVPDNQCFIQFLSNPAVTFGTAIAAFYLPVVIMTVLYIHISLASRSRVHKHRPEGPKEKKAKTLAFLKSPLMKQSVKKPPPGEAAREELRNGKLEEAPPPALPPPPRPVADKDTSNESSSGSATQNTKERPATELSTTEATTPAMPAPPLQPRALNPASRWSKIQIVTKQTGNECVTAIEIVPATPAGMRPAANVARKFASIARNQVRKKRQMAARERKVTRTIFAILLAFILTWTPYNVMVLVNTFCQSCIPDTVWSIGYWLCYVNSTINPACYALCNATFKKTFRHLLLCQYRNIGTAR

[4] = target: T4, rat m1 receptor (Rm1) (Rattus norvegicus, UniProt P08482); settings: inhibition of 3H-NMS binding
T4 sequence (P08482 1-460): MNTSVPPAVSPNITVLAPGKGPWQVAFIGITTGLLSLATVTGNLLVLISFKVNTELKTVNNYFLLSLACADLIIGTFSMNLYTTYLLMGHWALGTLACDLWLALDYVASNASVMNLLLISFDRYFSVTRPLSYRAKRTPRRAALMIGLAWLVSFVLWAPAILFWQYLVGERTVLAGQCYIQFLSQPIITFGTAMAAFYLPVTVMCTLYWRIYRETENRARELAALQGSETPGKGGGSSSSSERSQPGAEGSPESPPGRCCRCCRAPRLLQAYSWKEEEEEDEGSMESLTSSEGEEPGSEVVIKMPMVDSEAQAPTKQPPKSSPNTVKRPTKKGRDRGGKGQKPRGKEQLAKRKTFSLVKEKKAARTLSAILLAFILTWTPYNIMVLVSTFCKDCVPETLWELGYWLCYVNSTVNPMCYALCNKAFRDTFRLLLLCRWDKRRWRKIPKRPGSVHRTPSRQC
Description: (§2) All membranes, drugs and radioligands were made up in binding buffer which consisted of 25 mM sodium phosphate (pH 7.4) containing 5 mM magnesium chloride. Assays were conducted in 1 ml total volume. Final membrane protein concentrations were 30 ug/ml (m1), 70 ug/ml (m2), 4 μg/ml (m3), 7 μg/ml (m4), and 3 μg/ml (m5). […] Displaceable binding was assessed in the presence of 1 uM atropine sulphate. […]

[5] = target: T5, human m3 receptor (Hm3) (Homo sapiens, UniProt P20309)
T5 sequence (P20309 whole entry): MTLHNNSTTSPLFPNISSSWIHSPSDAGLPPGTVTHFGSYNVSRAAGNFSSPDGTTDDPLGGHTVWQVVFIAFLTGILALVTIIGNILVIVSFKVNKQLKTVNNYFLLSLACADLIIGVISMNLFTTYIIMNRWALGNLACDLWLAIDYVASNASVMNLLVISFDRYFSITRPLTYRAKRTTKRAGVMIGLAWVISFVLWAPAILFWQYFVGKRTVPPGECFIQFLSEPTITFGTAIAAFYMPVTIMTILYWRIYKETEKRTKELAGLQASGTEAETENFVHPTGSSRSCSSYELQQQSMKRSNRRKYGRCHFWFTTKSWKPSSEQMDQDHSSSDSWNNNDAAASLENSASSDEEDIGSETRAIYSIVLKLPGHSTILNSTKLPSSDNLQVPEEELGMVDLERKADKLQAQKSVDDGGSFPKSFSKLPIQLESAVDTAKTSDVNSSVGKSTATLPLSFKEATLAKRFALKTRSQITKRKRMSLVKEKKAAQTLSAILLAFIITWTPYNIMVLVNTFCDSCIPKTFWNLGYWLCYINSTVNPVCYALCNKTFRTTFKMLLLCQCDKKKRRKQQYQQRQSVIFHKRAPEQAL
Description: as §2

[6] = target: T4, rat m1 receptor (Rm1); experiment: biochemical
Description: as §2

[7] = target: T3, human m4 receptor (Hm4); settings: inhibition of 3H-NMS binding
[8] = target: T5, human m3 receptor (Hm3); experiment: biochemical
Description: as §2

[9] = target: T2, human m2 receptor (Hm2); experiment: biochemical
Description: as §1

SMILES | Bmax ([1]; Hm5 in CHO cell membranes, direct binding of 3H-NMS) [fmol/mg protein] | Bmax ([2]; Hm2 in CHO cell membranes, direct binding of 3H-NMS) [fmol/mg protein] | IC50 [3] [µM] | Ki [4] [µM] | Ki [5] [µM] | IC50 [6] [µM] | Ki ([7]; Hm4) [µM] | average Hill number (H) ([7]; m4, fit to single mass action binding site with variable Hill number) | IC50 [1] [µM] | Ki ([1]; Hm5, inhibition of 3H-NMS binding) [µM] | IC50 [8] [µM] | Ki ([2]; Hm2, inhibition of 3H-NMS binding) [µM] | IC50 [9] [µM]
C[N+]1(C)C2CC(OC(=O)C(CO)c3ccccc3)CC1C1OC12 (single isomer, unassigned) [^3 H-NMS, N-methylscopolamine] | 2236 ± 590 | 121 ± 63 |  |  |  |  |  |  |  |  |  |  | 
CCN(CC)CC1CCCCN1CC(=O)N1c2ccccc2C(=O)Nc2cccnc21 (stereo not shown) [AF-DX 116] |  |  | 1.8 ± 0.3 | 1.3 | 0.82 | 4.3 ± 1.2 | 0.45 | 0.79±0.03 | 6.8 ± 0.9 | 2.8 | 3.1 ± 0.4 | 0.26 | 0.36 ± 0.23
